Where two headings read alike, the source gives them in different places.
Legend:
Type in all cases: in vivo
Diabrotica balteata = Diabrotica balteata (corn root worm), maize sprout test; conditions: 96 h, read-out: control (mortality and growth inhibition)
Protocol: Diabrotica balteata, (Corn Root Worm)
Maize sprouts, placed on an agar layer in 24-well microtiter plates were treated with aqueous test solutions prepared from 10′000 ppm DMSO stock solutions by spraying. After drying, the plates were infested with L2 larvae (6 to 10 per well). The samples were assessed for mortality and growth inhibition in comparison to untreated samples 4 days after infestation.

Spodoptera littoralis = Spodoptera littoralis (Egyptian cotton leaf worm), cotton leaf disc spray test; conditions: foliar, 72 h, read-out: control (at least one of mortality, anti-feedant effect, growth inhibition); for percent control (mortality, anti-feedant effect or growth inhibition) at 200 ppm: application rate 200 ppm, L1 larvae, 3 days after infestation
Protocol: Spodoptera littoralis (Egyptian Cotton Leaf Worm)
Cotton leaf discs were placed on agar in 24-well microtiter plates and sprayed with aqueous test solutions prepared from 10′000 ppm DMSO stock solutions. After drying the leaf discs were infested with five L1 larvae. The samples were assessed for mortality, anti-feedant effect, and growth inhibition in comparison to untreated samples 3 days after infestation. Control of Spodoptera littoralis by a test sample is when at least one of mortality, anti-feedant effect, and growth inhibition is higher than the untreated sample.

Thrips tabaci = Thrips tabaci (onion thrips), sunflower leaf disc test; conditions: foliar, 144 h, read-out: control (mortality)
Protocol: Thrips tabaci (Onion Thrips):
(§1) Sunflower leaf discs were placed on agar in 24-well microtiter plates and sprayed with aqueous test solutions prepared from 10′000 ppm DMSO stock solutions. After drying the leaf discs were infested with a thrips population of mixed ages. The samples were assessed for mortality 6 days after infestation.

Tetranychus urticae = Tetranychus urticae (two-spotted spider mite), bean leaf disc test; conditions: foliar, 192 h, read-out: control (mortality on mixed population, mobile stages)
Protocol: Tetranychus urticae (Two-Spotted Spider Mite):
as §1, with “Bean” for “Sunflower”, “discs” for “discs were placed”, “were” for “and”, “mite” for “thrips”, “on mixed population (mobile stages) 8” for “6”

Euschistus heros = Euschistus heros (neotropical brown stink bug), soybean leaf test; conditions: 120 h, read-out: effect in at least one of the two categories (mortality or growth inhibition); for percent effect (mortality or growth inhibition) at 200 ppm: application rate 200 ppm, N2 nymphs, 5 days after infestation
Protocol: Euschistus heros (Neotropical Brown Stink Bug):
Soybean leaves on agar in 24-well microtiter plates were sprayed with aqueous test solutions prepared from 10′000 ppm DMSO stock solutions. After drying the leaves were infested with N2 nymphs. The samples were assessed for mortality and growth inhibition in comparison to untreated samples 5 days after infestation.

Plutella xylostella = Plutella xylostella (diamond back moth), artificial diet test; conditions: 120 h, read-out: control (mortality and growth inhibition)
Protocol: Plutella xylostella (Diamond Back Moth):
24-well microtiter plates with artificial diet were treated with aqueous test solutions prepared from 10′000 ppm DMSO stock solutions by pipetting. After drying, the plates were infested with L2 larvae (10 to 15 per well). The samples were assessed for mortality and growth inhibition in comparison to untreated samples 5 days after infestation.

Myzus persicae [1] = assay: Myzus persicae (green peach aphid), sucrose solution / Parafilm test; conditions: 120 h
Text: (§2) Myzus persicae (Green Peach Aphid):
Test compounds were applied by pipette into 24 well plates and mixed with Sucrose solution. Application rate: 12.5 ppm. The plates were closed with a stretched parafilm. A plastic stencil with 24 holes is placed onto the plate and infested pea seedlings were placed directly on the Parafilm. The infested plate is closed with a gel blotting paper and another plastic stencil and then turned upside down. 5 days after infestation the samples were checked on mortality.

Myzus persicae [2] = assay: Myzus persicae (green peach aphid), sunflower leaf disc spray test; conditions: foliar, 144 h
Protocol: as §2
Sunflower leaf discs were placed on agar in a 24-well microtiter plate and sprayed with test solutions at an application rate of 200 ppm. After drying, the leaf discs were infested with an aphid population of mixed ages. After an incubation period of 6 DAT, samples were checked for mortality. The following compounds gave at least 80% mortality of Myzus persicae: compounds 1,2, 3, 4, 5, 6, 11, 12, 15, 17, 18, 19, 20, 23, 24, 25, 26, 27, 30, 32, 33, 34 35, 41, 43, 44, 47, 50, 55, 58, 59, 60, 61, 62, 63, 64, 65 and 66.

[3] = application rate 200 ppm, L2 larvae, 4 days after infestation
[4] = application rate 200 ppm, mixed ages, 6 days after infestation
[5] = application rate 200 ppm, 8 days after infestation
[6] = application rate 200 ppm, L2 larvae, 5 days after infestation
[7] = test rate of 12 ppm, sucrose solution, 5 days after infestation, read-out: mortality
[8] = application rate 200 ppm, mixed ages, 6 DAT, read-out: mortality

Cn1nc(OC(F)(F)C(F)C(F)(F)F)c(C(F)(F)F)c1-n1cc(-c2ccc(F)c(C(=O)NC3(C#N)CC3)c2)cn1 (stereo not drawn) [compound 59]
≥ 80%: mortality at 200 ppm (Diabrotica balteata; [3]) | percent control (mortality, anti-feedant effect or growth inhibition) at 200 ppm (Spodoptera littoralis) | mortality at 200 ppm (Thrips tabaci; [4]) | mortality at 200 ppm (Tetranychus urticae; [5]) | percent effect (mortality or growth inhibition) at 200 ppm (Euschistus heros) | mortality at 200 ppm (Plutella xylostella; [6]) | mortality at 12 ppm (Myzus persicae [1]; [7]) | mortality at 200 ppm (Myzus persicae [2]; [8])

Cn1nc(OCC(F)F)c(C(F)(F)F)c1-n1cc(-c2ccc(Cl)c(C(=O)NC3(C#N)CC3)c2)cn1 [compound 23]
≥ 80%: mortality at 200 ppm (Diabrotica balteata; [3]) | percent control (mortality, anti-feedant effect or growth inhibition) at 200 ppm (Spodoptera littoralis) | mortality at 200 ppm (Thrips tabaci; [4]) | mortality at 200 ppm (Tetranychus urticae; [5]) | percent effect (mortality or growth inhibition) at 200 ppm (Euschistus heros) | mortality at 200 ppm (Plutella xylostella; [6]) | mortality at 12 ppm (Myzus persicae [1]; [7]) | mortality at 200 ppm (Myzus persicae [2]; [8])

Cn1nc(OCC(F)(F)C(F)F)c(C(F)(F)F)c1-n1cc(-c2ccc(Cl)c(C(=O)NC3CC3)c2)cn1 [compound 33]
≥ 80%: mortality at 200 ppm (Diabrotica balteata; [3]) | percent control (mortality, anti-feedant effect or growth inhibition) at 200 ppm (Spodoptera littoralis) | mortality at 200 ppm (Thrips tabaci; [4]) | mortality at 200 ppm (Tetranychus urticae; [5]) | percent effect (mortality or growth inhibition) at 200 ppm (Euschistus heros) | mortality at 200 ppm (Plutella xylostella; [6]) | mortality at 12 ppm (Myzus persicae [1]; [7]) | mortality at 200 ppm (Myzus persicae [2]; [8])

Cn1nc(OCC(F)(F)C(F)(F)C(F)(F)C(F)F)c(C(F)(F)F)c1-n1cc(-c2ccc(Cl)c(C(=O)NC3CC3)c2)cn1 [compound 27]
≥ 80%: mortality at 200 ppm (Diabrotica balteata) | mortality at 200 ppm (Spodoptera littoralis) | mortality at 200 ppm (Thrips tabaci) | mortality at 200 ppm (Tetranychus urticae) | percent control (mortality or growth inhibition) at 200 ppm (Euschistus heros) | mortality at 200 ppm (Plutella xylostella) | mortality at 12 ppm (Myzus persicae [1]) | mortality at 200 ppm (Myzus persicae [2])

Cn1nc(OC(F)(F)C(F)(F)Br)c(C(F)(F)F)c1-n1cc(-c2ccc(Cl)c(C(=O)NC3(C#N)CC3)c2)cn1 [compound 12]
≥ 80%: mortality at 200 ppm (Diabrotica balteata; [3]) | percent control (mortality, anti-feedant effect or growth inhibition) at 200 ppm (Spodoptera littoralis) | mortality at 200 ppm (Thrips tabaci; [4]) | mortality at 200 ppm (Tetranychus urticae; [5]) | percent effect (mortality or growth inhibition) at 200 ppm (Euschistus heros) | mortality at 200 ppm (Plutella xylostella; [6]) | mortality at 12 ppm (Myzus persicae [1]; [7]) | mortality at 200 ppm (Myzus persicae [2]; [8])

Cn1nc(OC(F)(F)C(F)Br)c(C(F)(F)F)c1-n1cc(-c2ccc(Cl)c(C(=O)NC3(C#N)CC3)c2)cn1 (stereo not drawn) [compound 47]
≥ 80%: mortality at 200 ppm (Diabrotica balteata; [3]) | percent control (mortality, anti-feedant effect or growth inhibition) at 200 ppm (Spodoptera littoralis) | mortality at 200 ppm (Thrips tabaci; [4]) | mortality at 200 ppm (Tetranychus urticae; [5]) | percent effect (mortality or growth inhibition) at 200 ppm (Euschistus heros) | mortality at 200 ppm (Plutella xylostella; [6]) | mortality at 12 ppm (Myzus persicae [1]; [7]) | mortality at 200 ppm (Myzus persicae [2]; [8])

Cn1nc(OC(F)(F)C(F)OC(F)(F)C(F)(F)C(F)(F)F)c(C(F)(F)F)c1-n1cc(-c2ccc(Cl)c(C(=O)NC3(C#N)CC3)c2)cn1 (stereo not drawn) [compound 17]
≥ 80%: mortality at 200 ppm (Diabrotica balteata) | mortality at 200 ppm (Spodoptera littoralis) | mortality at 200 ppm (Thrips tabaci) | mortality at 200 ppm (Tetranychus urticae) | percent control (mortality or growth inhibition) at 200 ppm (Euschistus heros) | mortality at 200 ppm (Plutella xylostella) | mortality at 12 ppm (Myzus persicae [1]) | mortality at 200 ppm (Myzus persicae [2])

CN(C(=O)c1cc(-c2cnn(-c3c(C(F)(F)F)c(OC(F)(F)C(F)C(F)(F)F)nn3C)c2)ccc1Cl)C1(C#N)CC1 (stereo not drawn) [compound 55]
≥ 80%: mortality at 200 ppm (Diabrotica balteata; [3]) | percent control (mortality, anti-feedant effect or growth inhibition) at 200 ppm (Spodoptera littoralis) | mortality at 200 ppm (Thrips tabaci; [4]) | mortality at 200 ppm (Tetranychus urticae; [5]) | percent effect (mortality or growth inhibition) at 200 ppm (Euschistus heros) | mortality at 200 ppm (Plutella xylostella; [6]) | mortality at 12 ppm (Myzus persicae [1]; [7]) | mortality at 200 ppm (Myzus persicae [2]; [8])

Cn1nc(OCC(F)(F)OC(F)(F)C(F)(F)OC(F)(F)F)c(C(F)(F)F)c1-n1cc(-c2ccc(Cl)c(C(=O)NC3CC3)c2)cn1 [compound 25]
≥ 80%: mortality at 200 ppm (Diabrotica balteata; [3]) | percent control (mortality, anti-feedant effect or growth inhibition) at 200 ppm (Spodoptera littoralis) | mortality at 200 ppm (Thrips tabaci; [4]) | mortality at 200 ppm (Tetranychus urticae; [5]) | percent effect (mortality or growth inhibition) at 200 ppm (Euschistus heros) | mortality at 200 ppm (Plutella xylostella; [6]) | mortality at 12 ppm (Myzus persicae [1]; [7]) | mortality at 200 ppm (Myzus persicae [2]; [8])

— patent publication US10750742B2, “Pesticidally active pyrazole derivatives” (SYNGENTA PARTICIPATIONS AG, priority 2015, dated 2020)
